According to patent US10993957B2 (NuCana plc, priority 2011, dated 2021):

Key:
[1] = Stability in human serum by in situ 31P NMR; format: in vitro ADME; conditions: 37° C., after 12 hours and 30 minutes
Procedure: The stability of the prodrug CPF-373 in the presence of human serum was studied using in situ ^31P NMR (202 MHz). The ProTide CPF-373 (1) (5.0 mg) was dissolved in DMSO (0.05 mL) and D2O (0.15 mL). Then the sample was transferred into an NMR tube, which was inserted in the NMR chamber at 37° C. (with enough solvent to obtain a control NMR reading of the blank). Then 0.3 ml human serum was quickly added to the sample in the NMR tube. NMR experiments were programmed to record data every 15 minutes for 12 hours and 30 minutes. Because of excess noise and poor shimming profiles (most likely due to the biological media and concentration), individual spectra were further processed. After normal Fourier transform processing, each spectrum was deconvoluted (Lorentz-Gauss deconvolution) to reveal solely the frequency and area of spectral peaks without the baseline. Data recorded were processed and analysed with the Bruker Topspin 2.1 program.
Chemical stability studies on the prodrug CPF-373 (1) have been performed by exposing the compound to human serum and to aqueous buffers (pH 1.0 and 8.0) using in situ ^31P NMR. […]
The stability of compound CPF 386 in the presence of human serum was investigated using in situ ^31P NMR. A control ^31P NMR data of compound CPF 386 in DMSO and D2O were recorded. […] The ^31P NMR data were recorded every 15 minutes over 14 h. […]

carboxypeptidase Y = molecular target: T1, carboxypeptidase Y (Saccharomyces cerevisiae, UniProt P00729); assay: Carboxypeptidase Y assay by in situ 31P NMR; format: in vitro ADME; conditions: yeast (Saccharomyces cerevisiae), 5 mg/mL, pH 7.6
T1 construct: purchased Sigma-Aldrich
T1 sequence (P00729 112-532): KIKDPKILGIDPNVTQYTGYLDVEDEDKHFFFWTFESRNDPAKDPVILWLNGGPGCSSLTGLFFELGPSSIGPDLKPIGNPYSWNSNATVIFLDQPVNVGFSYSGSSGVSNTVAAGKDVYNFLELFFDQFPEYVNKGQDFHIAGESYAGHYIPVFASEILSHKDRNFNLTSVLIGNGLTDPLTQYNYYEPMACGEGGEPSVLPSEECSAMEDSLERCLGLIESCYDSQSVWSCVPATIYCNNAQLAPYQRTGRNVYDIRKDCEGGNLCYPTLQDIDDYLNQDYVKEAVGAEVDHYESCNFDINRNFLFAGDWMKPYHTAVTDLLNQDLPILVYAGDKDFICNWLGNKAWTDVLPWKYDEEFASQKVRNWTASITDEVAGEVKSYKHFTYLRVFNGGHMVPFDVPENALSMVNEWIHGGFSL
Procedure: The enzymatic stability of the prodrug CPF-373 towards carboxypeptidase Y was studied using in situ ^31P NMR (202 MHz). The experiment was carried out by dissolving CPF-373 (3.0 mg) in d6-acetone (150 μL) and adding TRIZMA buffer pH 7.6 (300 μL). The resulting solution was placed in an NMR tube and a ^31P-NMR experiment at 25° C. was recorded as the blank experiment. The enzyme Carboxypeptidase Y (0.2 mg) was solubilised in TRIZMA (150 μL) and added to the solution of the phosphoramidate derivative in the NMR tube. Next, the tube was placed in the NMR machine, which was set to run a ^31P-NMR experiment (64 scans) every 4 minutes for 14 hours at 25° C. Data were processed and analysed with the Bruker Topspin 2.1 program. Carboxypeptidase Y and TRIZMA buffer were purchased from Sigma-Aldrich.
The compound (1) was incubated with carboxypeptidase Y (also known as cathepsin A) in TRIZMA buffer and the conversion of (1) was monitored by ^31P NMR. For a better resolution original spectra (lower graphs) and deconvoluted ones (upper graphs) are shown.
A enzymatic study using a carboxypeptidase Y assay was performed in which compound CPF 581, carboxypeptidase Y, and Trizma buffer (pH 7.6) were dissolved in acetone-d6 and ^31P NMR spectrum (202 MHz) spectra were recorded at regular intervals (every 7 min) over 14 h. […]

SMILES: C[C@H](NP(=O)(OC[C@H]1O[C@@H](n2cc(F)c(=O)[nH]c2=O)CC1O)Oc1cccc2ccccc12)C(=O)OCc1ccccc1 (stereo partly drawn) [CPF 373, 5-Fluoro-2′deoxyuridine-5′-O-[1-naphthyl (benzoxy-L-alaninyl)] phosphate]
- unchanged compound after incubation in human serum [1]: 73%
- time to complete conversion of parent to the putative intermediate (carboxypeptidase Y): ≤ 26 min
